In PubChem BioAssay (NCI) one finds TGI data, which are given here for 13 compounds.

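Interpolation was linear, between the two tested concentrations surrounding the appropriate level; five concentrations were tested over 48 hours in 96-well plates. TGI denotes the concentration required for complete inhibition of growth.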

Assay in all cases: inhibition of tumour cell growth, NCI panel, 48 h
Experiment [1] concerns HCT-116 colon.
For experiment [2], the system named is UACC-62 melanoma.
Experiment [3] deals with HT29 colon.
Experiment [4] concerns UACC-257 melanoma.
Experiment [5] deals with RXF 393 renal.
The test system of experiment [6] is OVCAR-4 ovarian.
Experiment [7] relates to U251 CNS.
Experiment [8] has as its system EKVX NSCLC.
The subject of experiment [9] is SW-620 colon.
Experiment [10] concerns OVCAR-3 ovarian.
In experiment [11] the test system is UO-31 renal.
Experiment [12] concerns ACHN renal.
Experiment [13] has as its system SK-OV-3 ovarian.
Experiment [14] relates to SK-MEL-28 melanoma.
In experiment [15] the test system is TK-10 renal.
Experiment [16] concerns LOX IMVI melanoma.
Experiment [17] has as its system A498 renal.

In the case of `O=C(CCN1CCC(CCO)CC1)Nc1ccc2c(c1)C(=O)c1ccc(NC(=O)CCN3CCC(CCO)CC3)cc1C2=O`, the TGI in experiment [1] is 31.2 µM; in [2], 38.4 µM; in [3] it was over 100 µM; in experiment [4], over 100 µM; in [5] it was over 100 µM; in [6] it was 63.2 µM. Besides, the TGI in experiment [7] was 23.8 µM; in [8], over 100 µM; in [9], 29.1 µM; in experiment [10], 24.7 µM; in experiment [11], over 100 µM; in experiment [12], over 100 µM. Further, the TGI is 46.3 µM in experiment [13]; over 100 µM in experiment [14]; over 100 µM in [15]; 64 µM in [16]; 92.8 µM in experiment [17].

Turning to `CN(C)CCN(C)C(=O)C1CCCN1C(=O)OCc1ccccc1` (stereo unspecified), the TGI in experiment [1], in experiment [2], in experiment [3], in experiment [4], in experiment [5] and in experiment [6] was over 100 µM each time. Moreover, the TGI in experiment [7], in [8], in experiment [9], in experiment [10], in experiment [11] and in [12] was over 100 µM each time. Besides, the TGI in experiment [13], in experiment [14], in [15], in [16] and in experiment [17] was over 100 µM in each case.

For the compound `CN(C)CC1CCCCCCCCCCCCC(CN(C)C)C1=O` (stereo unspecified), the TGI amounted to 16.8 µM in experiment [1]; 26.1 µM in experiment [2]; 18.5 µM in [3]; 29.9 µM in experiment [4]; 24 µM in [5]; 29.4 µM in [6]. The TGI in experiment [7] stood at 28 µM; in experiment [8], 37.3 µM; in experiment [9] it was 20.6 µM; in experiment [10], 30.7 µM; in [11] it was 26.8 µM; in experiment [12] it was 29.9 µM. The TGI amounted to 32.3 µM in experiment [13]; 26.6 µM in experiment [14]; 27.9 µM in experiment [15]; 21.3 µM in [16]; 33 µM in experiment [17].

For `CC1=NC=C(O)c2ccccc2O1`, the TGI in experiment [1], in experiment [2], in experiment [3], in experiment [4], in experiment [5] and in experiment [6] was over 100 µM throughout. Further, the TGI in [7], in [8], in experiment [9], in [10], in experiment [11] and in [12] was over 100 µM in each case. In addition, the TGI in experiment [13], in experiment [14], in [15], in [16] and in experiment [17] was over 100 µM in each case.

Turning to `CC(=O)Oc1c(Br)ccc2cc(C(Br)Br)c(C(=O)c3ccccc3)nc12`, the TGI in experiment [1] worked out at 42.9 µM; in experiment [2] it was 39.4 µM; in experiment [3] it was 40.1 µM; in [4], 8.87 µM; in experiment [5] it was 33.8 µM; in [6], 21.7 µM. In addition, the TGI in [7] was found to be 36.3 µM; in [8], 39.4 µM; in experiment [9], 48.2 µM; in experiment [11] it was 35.9 µM; in [12], 44.3 µM; in [14] it was 36.1 µM. Also, the TGI in experiment [15] stood at 31.9 µM; in [16], 50.9 µM.

For `CCOC(=O)/C(=C/c1ccccc1Br)P(=O)(OCC)OCC`, the TGI in experiment [1] stood at 10.1 µM; in [2], 3.29 µM; in [3] it was 13.9 µM; in experiment [5] it was 2.44 µM; in experiment [6] it was 4.2 µM; in experiment [7] it was 3.18 µM. Further, the TGI in experiment [8] is 8.16 µM; in [9], 4.45 µM; in [10] it was 5.46 µM; in experiment [12], 6 µM; in experiment [14], 4.66 µM; in experiment [15], 7.98 µM. Also, the TGI in experiment [16] stood at 3.09 µM; in experiment [17], 8.61 µM.

In the case of `O=C(Cc1ccccc1)NN1C(=O)C(Cl)C1c1cccc([N+](=O)[O-])c1` (stereo unspecified), the TGI in [1] is over 84.2 µM; in experiment [2], over 100 µM; in [3], over 20 µM; in experiment [4], over 100 µM; in [5] it was 93 µM; in experiment [6], over 92.9 µM. Moreover, the TGI is over 100 µM in [7]; over 100 µM in experiment [8]; over 89.1 µM in experiment [9]; over 86.8 µM in [10]; over 100 µM in experiment [11]; over 100 µM in [12]. For the same compound, the TGI in [13], in [14], in [15] and in experiment [17] was over 100 µM throughout.

In the case of `CCCCCC#COC1CC(C)CC[C@@H]1C(C)C` (stereo partly specified), the TGI is over 100 µM in [1]; over 100 µM in [2]; over 100 µM in [3]; over 100 µM in [4]; 86.9 µM in experiment [5]; over 100 µM in [6]. In addition, the TGI is over 100 µM in [7]; over 100 µM in experiment [8]; 34.1 µM in experiment [9]; over 100 µM in experiment [10]; over 100 µM in [11]; over 100 µM in experiment [12]. In addition, the TGI is over 100 µM in experiment [13], over 100 µM in experiment [14], over 100 µM in [15] and 29.9 µM in [16].

For the compound `N#Cc1ccc(C(C2C(=O)NC(=O)NC2=O)C2C(=O)NC(=O)NC2=O)cc1`, the TGI in experiment [1], in [2], in experiment [3], in [4], in experiment [6] and in experiment [7] was over 100 µM throughout. Further, the TGI in [8], in experiment [9], in experiment [10], in experiment [11], in [12] and in experiment [13] was over 100 µM in each case. In addition, the TGI in [14], in [15] and in experiment [16] was over 100 µM in each case.

Regarding `O=C(Cc1ccccc1)N/N=C(/c1nc2ccc([N+](=O)[O-])cc2[nH]c1=O)C(O)c1ccc(C(O)/C(=N/NC(=O)Cc2ccccc2)c2nc3ccc([N+](=O)[O-])cc3[nH]c2=O)cc1` (stereo unspecified), the TGI in [1], in experiment [2], in experiment [3], in [4], in [5] and in [6] was over 100 µM each time. The TGI in experiment [8], in experiment [9], in experiment [10], in [12], in experiment [13] and in experiment [14] was over 100 µM each time. The TGI in experiment [15], in [16] and in experiment [17] was over 100 µM throughout.

Turning to `O=C1C=CC(=O)c2cc(Sc3ccccc3)c(=O)c(Sc3ccccc3)cc21`, the TGI was over 100 µM in [1]; 81.6 µM in experiment [2]; over 100 µM in experiment [3]; over 100 µM in [4]; 51.2 µM in experiment [5]; over 100 µM in experiment [6]. For the same compound, the TGI was over 100 µM in experiment [7]; over 100 µM in experiment [8]; over 100 µM in experiment [9]; over 100 µM in [10]; over 100 µM in [11]; 36 µM in experiment [12]. Further, the TGI in experiment [13], in [14], in [15], in experiment [16] and in experiment [17] was over 100 µM in each case.

Take `O=P(CCOc1ccccc1OCCP(=O)(c1ccccc1)c1ccc2c(c1)OCCOCCOCCOCCO2)(c1ccccc1)c1ccc2c(c1)OCCOCCOCCOCCO2` (stereo unspecified): the TGI in [1], in [2], in experiment [3], in experiment [4], in experiment [5] and in [6] was over 100 µM each time. For the same compound, the TGI in experiment [7], in experiment [8], in experiment [9], in experiment [10], in [11] and in [12] was over 100 µM throughout. For the same compound, the TGI in experiment [13], in experiment [14], in experiment [15], in [16] and in [17] was over 100 µM in each case.

For the compound `Cc1ccc(C(=O)N2CCCCC2)cc1N=NN(C)C`, the TGI in [1], in experiment [2], in [3], in experiment [4], in experiment [6] and in experiment [8] was over 100 µM each time. The TGI in [9], in [10], in experiment [11], in experiment [12], in experiment [14] and in experiment [15] was over 100 µM throughout. Moreover, the TGI in experiment [16] and in [17] was over 100 µM each time.
